Type in all cases: functional
One assay deals with Candida albicans. The experiment in a line: Antifungal activity against Candida albicans NRRLY-477 assessed as diameter of inhibition zone at 1 mg/ml after 24 hrs by agar well diffusion method. To be noted: NRRLY-477, 24 h, read-out: DIZ. (In general: Agar diffusion results depend on both activity and mobility in agar.)
A further assay deals with Saccharomyces cerevisiae. The experiment in a line: Antifungal activity against Saccharomyces cerevisiae assessed as diameter of inhibition zone at 1 mg/ml after 24 hrs by agar well diffusion method. To be noted: read-out: DIZ.
The subject of another assay is Proteus vulgaris. Put plainly: Antibacterial activity against Proteus vulgaris assessed as diameter of inhibition zone at 1 mg/ml after 24 hrs by agar well diffusion method. The following applies: read-out: DIZ.
The next assay relates to Micrococcus luteus. The experiment in a line: Antibacterial activity against Sarcina lutea assessed as diameter of inhibition zone at 1 mg/ml after 24 hrs by agar well diffusion method. The following applies: read-out: DIZ.
The test system of a further assay is Escherichia coli. Put plainly: Antibacterial activity against Escherichia coli ATCC 25922 assessed as diameter of inhibition zone at 1 mg/ml after 24 hrs by agar well diffusion method. To be noted: ATCC 25922, 24 h, read-out: DIZ.
Another assay has as its system Pseudomonas aeruginosa. Put plainly: Antibacterial activity against Pseudomonas aeruginosa ATCC 27953 assessed as diameter of inhibition zone at 1 mg/ml after 24 hrs by agar well diffusion method. To be noted: ATCC 27953, 24 h, read-out: DIZ.
The test system of another assay is Klebsiella pneumoniae. The experiment in a line: Antibacterial activity against Klebsiella pneumoniae ATCC 13883 assessed as diameter of inhibition zone at 1 mg/ml after 24 hrs by agar well diffusion method. To be noted: ATCC 13883, 24 h, read-out: DIZ.
Another assay relates to Priestia megaterium. The experiment in a line: Antibacterial activity against Bacillus megaterium ATCC 9885 assessed as diameter of inhibition zone at 1 mg/ml after 24 hrs by agar well diffusion method. To be noted: ATCC 9885, 24 h, read-out: DIZ.
The test system of a further assay is Bacillus subtilis. Put plainly: Antibacterial activity against Bacillus subtilis ATCC 6633 assessed as diameter of inhibition zone at 1 mg/ml after 24 hrs by agar well diffusion method. The following applies: ATCC 6633, 24 h, read-out: DIZ.
For a further assay, the system named is Staphylococcus aureus. Put plainly: Antibacterial activity against Staphylococcus aureus ATCC 29213 assessed as diameter of inhibition zone at 1 mg/ml after 24 hrs by agar well diffusion method. The following applies: ATCC 29213, 24 h, read-out: DIZ.

Take `CC(=O)NS(=O)(=O)c1ccc(NC(=S)Nc2ccc(C(=O)NCC(=O)O)cc2)cc1`: the zone of inhibition at 1000 µg/mL in the assay with Candida albicans was 0 mm; in the assay on Saccharomyces cerevisiae, 0 mm; in the assay on Proteus vulgaris, 0 mm; in the assay on Micrococcus luteus, 0 mm; in the assay on Escherichia coli, 0 mm; with Pseudomonas aeruginosa, 12 mm. Also, the zone of inhibition at 1000 µg/mL in the assay on Klebsiella pneumoniae is 0 mm; in the assay on Priestia megaterium, 20 mm; in the assay with Bacillus subtilis, 18 mm; in the assay on Staphylococcus aureus, 15 mm.

On to `N=C(N)NS(=O)(=O)c1ccc(NC(=S)Nc2ccc(C(=O)NCC(=O)O)cc2)cc1`, for which the zone of inhibition at 1000 µg/mL turned out to be 0 mm in the assay with Candida albicans; 15 mm in the assay with Saccharomyces cerevisiae; 0 mm in the assay with Proteus vulgaris; 0 mm in the assay with Micrococcus luteus; 0 mm with Escherichia coli; 0 mm with Pseudomonas aeruginosa. Further, the zone of inhibition at 1000 µg/mL was found to be 0 mm in the assay with Klebsiella pneumoniae, 20 mm in the assay with Priestia megaterium, 16 mm in the assay with Bacillus subtilis and 0 mm in the assay with Staphylococcus aureus.

As for `O=C(O)CNC(=O)c1ccc(NC(=S)Nc2ccc(S(=O)(=O)Nc3nccs3)cc2)cc1`, the zone of inhibition at 1000 µg/mL amounted to 0 mm in the assay with Candida albicans; 0 mm in the assay with Saccharomyces cerevisiae; 0 mm with Proteus vulgaris; 0 mm in the assay on Micrococcus luteus; 0 mm in the assay on Escherichia coli; 30 mm with Pseudomonas aeruginosa. Moreover, the zone of inhibition at 1000 µg/mL came to 0 mm in the assay with Klebsiella pneumoniae, 14 mm in the assay with Priestia megaterium, 15 mm in the assay on Bacillus subtilis and 0 mm with Staphylococcus aureus.

For `O=C(O)CNC(=O)c1ccc(NC(=S)Nc2ccc(S(=O)(=O)Nc3ccccn3)cc2)cc1`, the zone of inhibition at 1000 µg/mL was 11 mm with Candida albicans; 20 mm with Saccharomyces cerevisiae; 0 mm in the assay on Proteus vulgaris; 0 mm with Micrococcus luteus; 21 mm in the assay on Escherichia coli; 21 mm in the assay with Pseudomonas aeruginosa. Further, the zone of inhibition at 1000 µg/mL in the assay on Klebsiella pneumoniae amounted to 20 mm; in the assay with Priestia megaterium it was 0 mm; in the assay on Bacillus subtilis it was 12 mm; in the assay on Staphylococcus aureus, 23 mm.

Turning to `Cc1c(NC(=S)Nc2ccc(C(=O)NCC(=O)O)cc2)c(=O)n(-c2ccccc2)n1C`, the zone of inhibition at 1000 µg/mL in the assay on Candida albicans was 0 mm; with Saccharomyces cerevisiae it was 17 mm; in the assay on Proteus vulgaris, 19 mm; in the assay on Micrococcus luteus it was 24 mm; in the assay on Escherichia coli, 14 mm; in the assay on Pseudomonas aeruginosa it was 22 mm. Moreover, the zone of inhibition at 1000 µg/mL came to 19 mm in the assay with Klebsiella pneumoniae, 18 mm with Priestia megaterium, 15 mm in the assay with Bacillus subtilis and 18 mm in the assay with Staphylococcus aureus.

For `O=C(O)CNC(=O)c1ccc(NC(=S)NNC(=O)c2ccccc2)cc1`, the zone of inhibition at 1000 µg/mL in the assay on Candida albicans turned out to be 9 mm; in the assay on Saccharomyces cerevisiae, 13 mm; in the assay on Proteus vulgaris, 15 mm; with Micrococcus luteus it was 20 mm; in the assay with Escherichia coli, 15 mm; with Pseudomonas aeruginosa, 15 mm. Besides, the zone of inhibition at 1000 µg/mL with Klebsiella pneumoniae is 20 mm; in the assay with Priestia megaterium, 10 mm; in the assay on Bacillus subtilis, 12 mm; with Staphylococcus aureus it was 22 mm.

In the case of `O=C(O)CNC(=O)c1ccc(NC(=S)NNC(=O)c2ccncc2)cc1`, the zone of inhibition at 1000 µg/mL in the assay with Candida albicans came out at 12 mm; in the assay on Saccharomyces cerevisiae, 0 mm; in the assay with Proteus vulgaris, 0 mm; in the assay with Micrococcus luteus it was 24 mm; with Escherichia coli, 0 mm; in the assay on Pseudomonas aeruginosa, 12 mm. The zone of inhibition at 1000 µg/mL in the assay on Klebsiella pneumoniae turned out to be 0 mm; in the assay with Priestia megaterium, 23 mm; in the assay on Bacillus subtilis it was 0 mm; in the assay with Staphylococcus aureus it was 0 mm.

Values taken from ChEMBL document CHEMBL2385069, “Thiourea derivatives incorporating a hippuric acid moiety: synthesis and evaluation of antibacterial and antifungal activities” (2013).
